In assay [1] the target is T1, mA3AR (Mus musculus, UniProt Q61618).
T1 sequence (Q61618 1-319): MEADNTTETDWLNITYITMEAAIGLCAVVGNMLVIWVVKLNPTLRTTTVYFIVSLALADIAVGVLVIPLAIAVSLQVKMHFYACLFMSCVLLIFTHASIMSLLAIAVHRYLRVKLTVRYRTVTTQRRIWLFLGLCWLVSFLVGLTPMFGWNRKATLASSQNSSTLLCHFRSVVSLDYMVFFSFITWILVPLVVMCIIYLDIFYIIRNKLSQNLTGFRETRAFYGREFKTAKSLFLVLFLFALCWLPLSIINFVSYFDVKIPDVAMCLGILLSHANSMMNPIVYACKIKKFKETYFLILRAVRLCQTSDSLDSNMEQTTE
The assay can be described thus: Adenosine receptor binding, mA3AR. To be noted: (m); Ki; read-out: A3AR % inhibition or Ki (converted).

Assay [2] deals with wild-type C57BL/6J mice. The assay can be described thus: Hypothermia (Tb by telemetry) after ip dosing. Format: in vivo, mouse. The settings on record: average from dosing to 60 min, mean±SD. The method, then:
(§1) Compounds were dosed ip. Tb and activity were measured by telemetry and the averages from dosing to 60 min were calculated. […] Data are for the highest dose used and are mean±SD from 3 to 22 mice/group (usually 5-7). P values are unpaired t-Test vs vehicle-treated controls assayed simultaneously. Vehicle data are mean±SD from all (n=83) vehicle treated mice.

The subject of assay [3] is wild-type C57BL/6J mice. The assay can be described thus: Locomotor activity by telemetry after ip dosing. Format: in vivo, mouse. To be noted: average from dosing to 60 min, mean±SD. The method, then:
as §1

In assay [4] the target is T2, mA1AR (Mus musculus, UniProt Q60612).
T2 sequence (Q60612 1-326): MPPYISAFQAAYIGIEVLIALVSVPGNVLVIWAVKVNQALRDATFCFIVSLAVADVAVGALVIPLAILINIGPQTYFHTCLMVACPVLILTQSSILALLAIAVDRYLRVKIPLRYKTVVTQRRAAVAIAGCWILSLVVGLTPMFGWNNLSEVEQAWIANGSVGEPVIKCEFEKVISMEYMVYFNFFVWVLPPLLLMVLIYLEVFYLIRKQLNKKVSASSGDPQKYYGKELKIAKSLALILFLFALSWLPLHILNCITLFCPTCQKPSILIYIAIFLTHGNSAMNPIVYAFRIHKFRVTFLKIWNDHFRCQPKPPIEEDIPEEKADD
The assay can be described thus: Adenosine receptor binding, mA1AR.

Assay [5] has as its target T3, hA2AAR (Homo sapiens, UniProt P29274).
T3 construct: expressed in transfected cells; host or cells: HEK293
Nature of the assay: Radioligand binding in membranes of HEK293 cells expressing hA2AAR. To be noted: read-out: A2AAR % inhibition; for Ki: (h), values without % sign (Ki).

For assay [6], the target named is TSPO (translocator protein) (UniProt P30536). The assay can be described thus: Off-target interaction determined by the PDSP. In kind it is binding, human. The settings on record: for Ki: read-out: Off-target, receptor (h, unless noted) (Ki, μM): TSPO.
Assay [7] concerns the target T4, hA1AR (Homo sapiens, UniProt P30542).
T4 construct: expressed in transfected cells; host or cells: CHO
T4 sequence (P30542 1-326): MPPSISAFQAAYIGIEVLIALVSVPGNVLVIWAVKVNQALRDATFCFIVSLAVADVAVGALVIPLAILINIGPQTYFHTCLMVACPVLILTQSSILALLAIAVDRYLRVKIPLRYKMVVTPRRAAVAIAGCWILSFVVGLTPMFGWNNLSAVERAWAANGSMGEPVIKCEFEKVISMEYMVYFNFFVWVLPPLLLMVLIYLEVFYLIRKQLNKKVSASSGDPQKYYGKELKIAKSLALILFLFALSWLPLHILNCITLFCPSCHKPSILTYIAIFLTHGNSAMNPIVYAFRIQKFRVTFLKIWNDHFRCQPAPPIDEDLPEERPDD
The assay can be described thus: Radioligand binding in membranes of CHO cells expressing hA1AR, [3H]N6-R-phenylisopropyladenosine. The settings on record: read-out: A1AR % inhibition or Ki; for Ki: (h).

Assay [8] deals with sigma receptor σ1 (Homo sapiens, UniProt Q99720). The assay can be described thus: Off-target interaction determined by the PDSP. Format: binding. To be noted: read-out: Off-target, receptor (h, unless noted) (Ki, μM): σ1.
sigma receptor σ1, sequence (Q99720 whole entry): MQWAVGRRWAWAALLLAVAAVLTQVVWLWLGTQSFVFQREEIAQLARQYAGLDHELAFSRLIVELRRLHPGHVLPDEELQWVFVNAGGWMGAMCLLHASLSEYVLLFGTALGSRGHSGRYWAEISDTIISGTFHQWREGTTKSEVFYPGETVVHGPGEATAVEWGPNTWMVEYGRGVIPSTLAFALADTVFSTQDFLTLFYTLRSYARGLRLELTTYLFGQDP
Assay [9] has as its target sigma receptor σ2 (UniProt Q5BJF2). Nature of the assay: Off-target interaction determined by the PDSP. In kind it is binding, human. To be noted: read-out: Off-target, receptor (h, unless noted) (Ki, μM): σ2.
Assay [10] deals with T5, hA3AR (Homo sapiens, UniProt P0DMS8).
T5 construct: expressed in transfected cells; host or cells: CHO
T5 sequence (P0DMS8 1-318): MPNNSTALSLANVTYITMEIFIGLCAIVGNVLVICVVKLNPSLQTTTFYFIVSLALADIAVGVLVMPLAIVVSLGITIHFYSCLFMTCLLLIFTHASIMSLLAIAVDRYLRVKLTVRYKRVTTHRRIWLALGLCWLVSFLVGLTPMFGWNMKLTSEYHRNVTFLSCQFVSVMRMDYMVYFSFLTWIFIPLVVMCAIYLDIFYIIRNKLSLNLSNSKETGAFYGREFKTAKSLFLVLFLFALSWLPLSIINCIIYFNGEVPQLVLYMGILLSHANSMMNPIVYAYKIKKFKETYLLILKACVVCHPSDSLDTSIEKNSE
The assay can be described thus: Radioligand binding in membranes of CHO cells expressing hA3AR. The settings on record: read-out: A3AR % inhibition or Ki; for Ki: (h).

The target in assay [11] is T6, serotonin receptor 5HT2C (Homo sapiens, UniProt P28335).
T6 sequence (P28335 33-458): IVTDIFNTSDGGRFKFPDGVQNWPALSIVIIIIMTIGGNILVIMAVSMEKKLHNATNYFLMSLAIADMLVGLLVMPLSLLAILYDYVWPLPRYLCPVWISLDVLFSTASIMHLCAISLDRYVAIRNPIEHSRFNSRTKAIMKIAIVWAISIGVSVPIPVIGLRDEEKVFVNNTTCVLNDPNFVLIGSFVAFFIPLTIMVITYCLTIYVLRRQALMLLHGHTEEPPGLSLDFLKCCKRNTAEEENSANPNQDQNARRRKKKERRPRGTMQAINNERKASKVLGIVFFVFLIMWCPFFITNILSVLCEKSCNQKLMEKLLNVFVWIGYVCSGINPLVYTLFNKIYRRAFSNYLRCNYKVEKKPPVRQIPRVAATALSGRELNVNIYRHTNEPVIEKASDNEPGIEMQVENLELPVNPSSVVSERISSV
Nature of the assay: Off-target interaction determined by the PDSP. Format: binding. The settings on record: read-out: Off-target, receptor (h, unless noted) (Ki, μM): 5HT2C.

For assay [12], the target named is serotonin receptor 5HT2B (Homo sapiens, UniProt P41595). Nature of the assay: Off-target interaction determined by the PDSP. Format: binding. To be noted: read-out: Off-target, receptor (h, unless noted) (Ki, μM): 5HT2B.
serotonin receptor 5HT2B, sequence (P41595 whole entry): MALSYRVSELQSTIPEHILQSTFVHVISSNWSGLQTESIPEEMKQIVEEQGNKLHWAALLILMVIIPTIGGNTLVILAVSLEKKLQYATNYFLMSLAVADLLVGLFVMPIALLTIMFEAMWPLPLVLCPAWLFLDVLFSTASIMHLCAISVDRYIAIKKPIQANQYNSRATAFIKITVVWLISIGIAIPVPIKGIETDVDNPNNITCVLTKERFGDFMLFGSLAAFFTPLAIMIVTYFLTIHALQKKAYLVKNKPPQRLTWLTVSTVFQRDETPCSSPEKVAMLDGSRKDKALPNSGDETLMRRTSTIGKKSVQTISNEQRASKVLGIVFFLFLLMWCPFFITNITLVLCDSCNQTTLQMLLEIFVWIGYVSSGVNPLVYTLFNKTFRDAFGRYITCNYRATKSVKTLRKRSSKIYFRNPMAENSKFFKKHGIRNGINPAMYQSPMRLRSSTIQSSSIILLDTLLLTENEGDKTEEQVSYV
Where [13] appears, read: (m), Ki, read-out: A1AR % inhibition or Ki (converted).

Like-named read-outs stand apart in the source and are kept apart here.

One may read the inhibition as the share of the control response that was lost under treatment.

T3 sequence (P29274 whole entry): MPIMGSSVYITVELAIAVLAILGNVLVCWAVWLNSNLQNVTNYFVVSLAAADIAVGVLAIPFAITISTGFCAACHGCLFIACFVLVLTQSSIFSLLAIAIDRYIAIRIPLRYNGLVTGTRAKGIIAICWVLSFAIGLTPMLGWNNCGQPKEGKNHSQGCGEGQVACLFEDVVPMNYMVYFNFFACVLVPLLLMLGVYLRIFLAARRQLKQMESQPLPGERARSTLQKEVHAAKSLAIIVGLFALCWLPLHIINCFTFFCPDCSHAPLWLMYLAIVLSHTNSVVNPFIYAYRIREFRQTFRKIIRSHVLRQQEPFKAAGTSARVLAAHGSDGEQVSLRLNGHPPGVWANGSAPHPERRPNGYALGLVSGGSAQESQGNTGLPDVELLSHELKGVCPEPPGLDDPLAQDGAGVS

Take `O[C@@H]1[C@H](O)[C@@H](CCl)O[C@H]1n1cnc2c(NC3CC4CCC3C4)ncnc21` (stereo partly drawn) [Compound 4, reference compound]: the Ki is 2410 nM in assay [1] and 0.2 nM in assay [4] (setting [13]). Besides, the “Tb (° C.)” value in assay [2] (3 mg/kg ip) came to 32.2 ± 1.3 °C. The “Activity (counts)” value in [3] (3 mg/kg ip) turned out to be 2.8 ± 1.6 counts.
As to `O[C@@H]1[C@H](O)[C@@H]2C[C@@H]2[C@H]1n1cnc2c(NC(C3CCC3)C3CCC3)nc(Cl)nc21` [Compound 19], in assay [5], the inhibition at 10 µM is 46 ± 6%. The Ki in [6] came out at 2.38 µM.
For the molecule `O[C@@H]1[C@H](O)[C@@H](CCl)O[C@H]1n1cnc2c(NC(C3CCC3)C3CCC3)ncnc21` [Compound 10, (2S,3S,4R,5R)-2-(Chloromethyl)-5-(6-((dicyclobutylmethyl)amino)-9H-purin-9-yl)tetrahydrofuran-3,4-diol], the Ki in [1] is 2110 nM; in assay [7], 4.9 ± 0.87 nM; in [8], 0.69 µM; in assay [9] it was 0.662 µM; in assay [5], 5200 nM; in [6], 3.98 µM. In addition, the Ki is 0.71 nM in assay [4] (setting [13]) and 16600 nM in assay [10]. Moreover, in assay [2] (10 mg/kg ip), the “Tb (° C.)” value turned out to be 35.8 ± 0.1 °C. Further, the “Activity (counts)” value in assay [3] (10 mg/kg ip) is listed as 20.5 ± 4.6 counts.
For `OC[C@H]1O[C@@H](n2cnc3c(NC(C4CCC4)C4CCC4)nc(Cl)nc32)[C@H](O)[C@@H]1O` [Compound 12, (2R,3R,4R,5R)-2-(2-Chloro-6-((dicyclobutylmethyl)amino)-9H-purin-9-yl)-5-(hydroxymethyl)tetrahydrofuran-3,4-diol], the Ki in assay [1] is 653 nM; in assay [7], 17.8 ± 8.7 nM; in assay [5], 2550 ± 540 nM; in assay [4] (Table 7, repeats the binding tables, read-out: Binding Ki for mA1AR), 0.65 nM; in assay [11], 1.45 µM; in [10] it was 13200 nM.
Take `CNC(=O)[C@@]12C[C@@H]1[C@@H](n1cnc3c(NC4CCCC4)nc(Cl)nc31)[C@H](O)[C@@H]2O` [Compound 6e, reference compound]: the Ki in assay [1] was 3.46 ± 0.13 nM; in [12] it was 0.012 µM; in [7], 18.3 ± 6.3 nM; in assay [8] it was 1.55 µM; in assay [5], 3250 ± 300 nM; in [4] (setting [13]) it was 0.68 nM. The Ki in [10] is 3.7 ± 0.9 nM.
As to `Nc1nc(Cl)nc2c1ncn2[C@H]1[C@H](O)[C@H](O)[C@]2(CCl)C[C@H]12` [Compound 22], the Ki in assay [7] was found to be 7.61 ± 0.73 nM; in assay [8] it was 1.97 µM; in assay [9], 2.55 µM; in assay [5], 1750 ± 290 nM; in [10] it was 253 ± 148 nM.
Consider `O[C@@H]1[C@H](O)[C@@H]2C[C@@H]2[C@H]1n1cnc2c(NC(C3CC3)C3CC3)nc(Cl)nc21` [Compound 7, reference compound], for which the “Tb (° C.)” value in [2] (3 mg/kg ip) was 33.4 ± 1.7 °C. In addition, in [3] (3 mg/kg ip), the “Activity (counts)” value amounted to 5.5 ± 4.1 counts.
For `NC(=O)c1ncn([C@@H]2O[C@H](CO)[C@@H](O)[C@H]2O)n1` [Compound 38, ribavirin, reference compound], the inhibition at 10 µM worked out at 23 ± 6% in assay [5] and 16 ± 5% in assay [10].
Take `Nc1ncnc2c1ncn2[C@@H]1O[C@H](C(=O)O)[C@@H](O)[C@H]1O` [Compound 14]: the inhibition at 10 µM in [7] was 24 ± 4%; in assay [5], 11 ± 4%; in assay [10], 32%. Further, the Ki in assay [8] is 1.48 µM; in assay [9], 0.796 µM.
With `CCSC[C@H]1O[C@@H](n2cnc3c(NC(C4CCC4)C4CCC4)ncnc32)[C@H](O)[C@@H]1O` [Compound 11, (2R,3R,4S,5S)-2-(6-((Dicyclobutylmethyl)amino)-9H-purin-9-yl)-5-((ethylthio)methyl)tetrahydrofuran-3,4-diol], the Ki is 718 nM in assay [1]; 63.4 ± 12.1 nM in assay [7]; 0.626 µM in assay [8]; 0.642 µM in assay [9]; 3.58 nM in assay [4] (setting [13]); 6220 ± 1480 nM in assay [10]. Also, the inhibition at 10 µM in [5] came out at 30 ± 5%. Moreover, the “Off-target: TSPO (% inhib.)” value in assay [6] (footnote j not given) worked out at 90%.
In the case of `Nc1ncnc2c1ncn2[C@@H]1O[C@H](C(=O)NCCO)[C@@H](O)[C@H]1O` [Compound 18, reference compound], the Ki in assay [7] is 12.8 nM; in assay [5], 505 ± 30 nM; in assay [10] it was 9450 nM.
Regarding `CNC(=O)[C@@]12C[C@@H]1[C@@H](n1cnc3c(NC(C4CC4)C4CC4)nc(Cl)nc31)[C@H](O)[C@@H]2O` [Compound 34], the Ki amounted to 0.023 µM in assay [12]; 110 ± 14 nM in [7]; 4320 ± 1870 nM in [5]; 0.749 µM in assay [11]; 34 ± 11 nM in assay [10].
On to `CCOC(=O)[C@@]12C[C@@H]1[C@@H](n1cnc3c(NC(C4CC4)C4CC4)nc(Cl)nc31)[C@H](O)[C@@H]2O` [Compound 32], for which the Ki in assay [12] stood at 0.015 µM; in assay [7] it was 360 ± 74 nM; in assay [11], 0.054 µM; in assay [10], 236 ± 41 nM.
Take `CCOC(=O)[C@@]12C[C@@H]1[C@@H](n1cnc3c(NC(C4CC4)C4CC4)nc(Cl)nc31)[C@@H]1OC(C)(C)O[C@@H]12` [Compound 33]: the inhibition at 10 µM in [7] came out at 49 ± 9%; in assay [5], 15 ± 2%; in [10] it was 41 ± 6%.

Source of the values: US12378248B2 (The United States of America, as represented by the …, priority 2018, dated 2025).
